Values quoted from earlier work, collected in patent US6403120B1 (Wyeth, priority 1996, dated 2002).

Conditions: plural daily dosing regimen

COc1ccc(C(CN(C)C)C2(O)CCCCC2)cc1.Cl (centres unmarked) [venlafaxine hydrochloride, 1-[2-(dimethylamino)-1-(4methoxyphenyl)ethyl]cyclohexanol hydrochloride]
patients experiencing nausea: about forty five
patients with vomiting: about seventeen
